Experimental data from US7795312B2, “Method for treating abdominal discomfort” (Sucampo AG, priority 2002, dated 2010).

Key:
Type in all cases: in vivo, human
[1] = tested on: patients with irritable bowel syndrome (IBS); experiment: Abdominal bloating score in patients with irritable bowel syndrome; conditions: for Abdominal bloating score, Mean ± SD: IBS patients
Protocol: (§1) Patients with irritable bowel syndrome (IBS) were randomly allocated to the following two treatment groups. • Group 1: Test substance (13,14-dihydro-15-keto-16,16-difluoro-PGE1) 48 μg total (24 μg/breakfast+24 μg/dinner) • Group 2: Matching placebo (placebo/breakfast+placebo/dinner)
(§2) Each group underwent two weeks washout period and then began to administer oral test substance (capsules) or placebo (capsules) daily for 4 weeks. Test substance or placebo was taken two times a day (b.i.d) at breakfast with food and at least 8 ounces of water and at dinner with food and at least 8 ounces of water. The patients were asked to evaluate abdominal bloating upon waking in the morning, using a 5-point scale (Score: 0=absent, 1=mild, 2=moderate, 3=severe, 4=very severe) at 4 weeks after the initiation of the treatments.

[2] = tested on: patients with irritable bowel syndrome (IBS) exhibiting dyschezia; experiment: Spontaneous bowel movement frequency in patients with IBS exhibiting dyschezia; conditions: for Spontaneous Bowel Movement Frequency Rates, Mean ± SD: IBS patients exhibiting dyschezia
Protocol: Each group underwent two weeks washout period and then began to administer oral test substance (capsules) or placebo (capsules) daily for 4 weeks. Test substance or placebo was taken two times a day (b.i.d) at breakfast with food and at least 8 ounces of water and at dinner with food and at least 8 ounces of water. After 3 consecutive days of not having spontaneous bowel movement, the investigator could prescribe to the patient 10 mg bisacodyl suppository as a rescue medication. If this was not effective, Fleet® enema could be used. During the study period, each patient documented bowel activity. A spontaneous bowel movement was defined as any bowel movement except for that occurred within 24 hours after the rescue medication. Frequency of spontaneous bowel movements at Baseline, Weeks 1, 2, 3 and 4 were analyzed.

[3] = tested on: patients with irritable bowel syndrome (IBS); experiment: Abdominal discomfort score in patients with irritable bowel syndrome; conditions: for Abdominal discomfort score, Mean ± SD: IBS patients
Protocol: as §1
as §2, with “Patients” for “The patients”, “discomfort” for “bloating”

[4] = tested on: patients with occasional constipation; experiment: Abdominal discomfort score in patients with occasional constipation; conditions: for Abdominal discomfort score, Mean ± SD: patients with constipation, oral capsules 48 μg total daily (24 μg b.i.d.), 5-point scale 0-4, p < 0.05 vs placebo
Protocol: Patients with occasional constipation were randomly allocated to the following two treatment groups. • Group 1: Test substance (13,14-dihydro-15-keto-16,16-difluoro-PGE1) 48 μg total (24 μg/breakfast+24 μg/dinner) • Group 2: Matching placebo (placebo/breakfast+placebo/dinner) Each group underwent two weeks washout period and then began to administer oral test substance (capsules) or placebo (capsules) daily for 4 weeks. During the washout period, the patient's bowel habit was documented to confirm the existence of constipation. Constipation is defined as, on average, less than three spontaneous bowel movements per week. All existing laxative medication was withdrawn at the start of the washout period and the patients were instructed not to change their diet or lifestyle during the study.
Test substance or placebo was taken orally for a total treatment period of 4 weeks; it was taken two times a day (b.i.d) at breakfast with food and at least 8 ounces of water and at dinner with food and at least 8 ounces of water. […]

[5] = Baseline, 5-point scale 0=absent to 4=very severe
[6] = Week 4, oral capsules 48 μg total daily (24 μg b.i.d.), 5-point scale 0-4, p < 0.01 vs placebo
[7] = oral 48 μg total daily for 4 weeks

CCCCC(F)(F)C(=O)CCC1C(O)CC(=O)C1CCCCCCC(=O)O (stereo not shown) [Test Substance, 13,14-dihydro-15-keto-16,16-difluoro-PGE1]
Abdominal bloating score, Mean ± SD [1, 5]: 2.50 ± 0.916 (32) | Abdominal bloating score, Mean ± SD [1, 6]: 1.74 ± 0.999 (31) | Effect on abdominal bloating in patients with IBS [1, 7]: significantly improved the abdominal bloating | Spontaneous Bowel Movement Frequency Rates, Mean ± SD ([2]; Baseline): 1.43 ± 0.773 (32) | Spontaneous Bowel Movement Frequency Rates, Mean ± SD ([2]; Week 1, oral capsules 48 μg total daily (24 μg b.i.d.), p < 0.01 vs placebo): 6.50 ± 4.108 (32) | Spontaneous Bowel Movement Frequency Rates, Mean ± SD ([2]; Week 2, oral capsules 48 μg total daily (24 μg b.i.d.), p < 0.01 vs placebo): 5.58 ± 4.003 (32) | Spontaneous Bowel Movement Frequency Rates, Mean ± SD ([2]; Week 3, oral capsules 48 μg total daily (24 μg b.i.d.), p < 0.01 vs placebo): 5.93 ± 4.775 (32) | Spontaneous Bowel Movement Frequency Rates, Mean ± SD ([2]; Week 4, oral capsules 48 μg total daily (24 μg b.i.d.), p < 0.05 vs placebo): 5.17 ± 4.333 (32) | Effect on spontaneous bowel movement frequency in patients with IBS exhibiting dyschezia [2, 7]: significantly improved the spontaneous bowel movement frequency | Abdominal discomfort score, Mean ± SD [3, 5]: 2.25 ± 0.803 | Abdominal discomfort score, Mean ± SD [3, 6]: 1.48 ± 1.029 | Effect on abdominal discomfort in patients with IBS [3, 7]: significantly improved the abdominal discomfort | Abdominal discomfort score, Mean ± SD ([4]; Week 2): 1.09 ± 1.047 (116) | Abdominal discomfort score, Mean ± SD ([4]; Week 3): 1.27 ± 1.057 (117) | Abdominal discomfort score, Mean ± SD ([4]; Week 4): 1.22 ± 1.060 (117) | Effect on abdominal discomfort in patients with constipation [4, 7]: significantly improved the abdominal discomfort
